Measured values: patent US12084709B2, “Screening method” (Mars, Incorporated, priority 2018, dated 2024)

System: Porphyromonas macacae JN713359
Test: mBB fluorescent C-S lyase / VSC production method with whole bacteria
Format: cell-based
Conditions: 0.12% CHX treatment; relative to control
Method: The C-S lyase activity was measured in order to quantitate VSC production by the bacteria. This was conducted by using monobromobiname, a fluorescent probe for thiol. The bacteria were washed and resuspended in Tris buffer (pH 8.5) at OD=1.0. The 250 μL reaction mix contained 4 mM benzylcysteine, 100 μM monobromobimane, 10 μM pyridoxal 5′-phosphate, 50 μL of the bacteria suspension and was made up to 250 μL with tris buffer (pH 8.5). The mix was incubated anaerobically for 45 minutes at 37° C. The C-S lyase activities were determined based on fluorescence at 490 nm (em) upon excitation at 385 nm (ex). All measurements were performed in biological duplicate with each repeated in technical triplicates, creating total of 6 data points per strain. Blank measurements (containing buffer instead of crude extract) were used to correct the values derived from the substrate. The standard curve was measured using Benzyl mercaptan at 8-128 μM. The protein concentration of the bacteria suspension was determined by means of a commercially available BCA kit in accordance with the manufacturer's method. The specific C-S lyase activity was calculated by dividing the increase in fluorescence equivalent to Benzyl mercaptan concentration by the total protein content of the suspension in mg and expressed as unit which was defined as “nM Benzyl mercaptan release/μg protein/minute”. […]

`[H]/N=C(\N/C(=N/[H])NCCCCCCNC(=N)NC(=N)Nc1ccc(Cl)cc1)Nc1ccc(Cl)cc1` [CHX, Chlorhexidine, reference compound] was tested, and the “quantity of VSC produced as the control” value was 25%.
